According to ChEMBL document CHEMBL1201862, “PubChem BioAssay data set” (2004):
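Protocol summary: plate cells (96-well), add compound at 5 concentrations, incubate 48 h, interpolate endpoints linearly. At the GI50, growth is halved.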 Active and inactive are the calls of the source. Cut-off read from the data, not from the text of the source: active = GI50 up to about 1.1 µM and inactive = higher.

How the values were obtained:
Assay in all cases: NCI tumour cell line growth inhibition, 48 h
IGROV-1 = test system: IGROV-1
OVCAR-8 = test system: OVCAR-8
CCRF-CEM = test system: CCRF-CEM
SN12C = test system: SN12C
Hs-578T = test system: Hs-578T
HCT-116 = test system: HCT-116
MOLT-4 = test system: MOLT-4
SK-OV-3 = test system: SK-OV-3
TK-10 = test system: TK-10
OVCAR-4 = test system: OVCAR-4
SK-MEL-2 = test system: SK-MEL-2
SF-295 = test system: SF-295
SW-620 = test system: SW-620
K562 = test system: K562
SK-MEL-28 = test system: SK-MEL-28
NCI/ADR-RES = test system: NCI/ADR-RES
M14 = test system: M14
MCF7 = test system: MCF7
HCC 2998 = test system: HCC 2998
EKVX = test system: EKVX
HOP-62 = test system: HOP-62
OVCAR-3 = test system: OVCAR-3
PC-3 = test system: PC-3
HOP-92 = test system: HOP-92
RPMI-8226 = test system: RPMI-8226
U-251 = test system: U-251
RXF 393 = test system: RXF 393
KM12 = test system: KM12
A549 = test system: A549
HL-60 = test system: HL-60
SF-539 = test system: SF-539
NCI-H23 = test system: NCI-H23
DU-145 = test system: DU-145
ACHN = test system: ACHN
SK-MEL-5 = test system: SK-MEL-5
SNB-19 = test system: SNB-19
UACC-62 = test system: UACC-62
HCT-15 = test system: HCT-15
BT-549 = test system: BT-549
T47D = test system: T47D
MDA-N = test system: MDA-N
CAKI-1 = test system: CAKI-1
786-0 = test system: 786-0
UO-31 = test system: UO-31
SF-268 = test system: SF-268
MDA-MB-231 = test system: MDA-MB-231
LOX IMVI = test system: LOX IMVI
SR = test system: SR
MDA-MB-435 = test system: MDA-MB-435
OVCAR-5 = test system: OVCAR-5
HT-29 = test system: HT-29
COLO 205 = test system: COLO 205
NCI-H226 = test system: NCI-H226
Malme-3M = test system: Malme-3M
NCI-H460 = test system: NCI-H460
A498 = test system: A498
UACC-257 = test system: UACC-257

Measured: GI50

CCOC(=O)c1c2cccccc-2nc1Nc1cccc2c(C)ccnc12
inactive: IGROV-1 4.82 µM | OVCAR-8 > 10 µM | CCRF-CEM 4.88 µM | SN12C > 10 µM | Hs-578T > 10 µM | HCT-116 5.12 µM | MOLT-4 5.16 µM | SK-OV-3 > 10 µM | TK-10 > 10 µM | OVCAR-4 4.82 µM | SK-MEL-2 > 10 µM | SF-295 > 10 µM | SW-620 > 10 µM | K562 4.01 µM | SK-MEL-28 > 10 µM | NCI/ADR-RES > 10 µM | M14 > 10 µM | MCF7 8.24 µM | HCC 2998 > 10 µM | EKVX > 10 µM | HOP-62 > 10 µM | OVCAR-3 4.81 µM | PC-3 5.75 µM | HOP-92 > 10 µM | RPMI-8226 3.03 µM | U-251 > 10 µM | RXF 393 > 10 µM | KM12 > 10 µM | A549 > 10 µM | HL-60 4.47 µM | SF-539 > 10 µM | NCI-H23 > 10 µM | DU-145 > 10 µM | ACHN 6.14 µM | SK-MEL-5 > 10 µM | SNB-19 > 10 µM | UACC-62 9.77 µM | BT-549 > 10 µM | T47D 2.66 µM | MDA-N > 10 µM | CAKI-1 > 10 µM | 786-0 > 10 µM | UO-31 9.16 µM | SF-268 > 10 µM | MDA-MB-231 > 10 µM | LOX IMVI > 10 µM | SR 9.95 µM | MDA-MB-435 > 10 µM | OVCAR-5 > 10 µM | HT-29 4.89 µM | COLO 205 7.43 µM | NCI-H226 > 10 µM | Malme-3M > 10 µM | NCI-H460 7.31 µM | A498 > 10 µM | UACC-257 9.2 µM
6.31 µM: HCT-15
